Reference: patent US10376499B2, “Combination therapy for treatment of resistant bacterial infections” (priority 2014, dated 2019)
≈ marks a conversion by molar mass, not a printed value.

Legend:
A. baumannii [1] = assay: MIC, 20 diverse recent strains of A. baumannii (Example 10); assay type: cell-based, Acinetobacter baumannii; conditions: N 20 A. baumannii strains
A. baumannii [2] = assay: Neutropenic mouse thigh and lung infection models; conditions: neutropenic CD-1 mice, subcutaneous q3h, sulbactam+compound 1 at 4:1 ratio, 24 h, isolate containing AmpC, OXA-66, OXA-72, TEM-1, FIG. 4
Enterobacter cloacae = assay: MIC, recent Enterobacteriaceae clinical isolates: Enterobacter cloacae (Examples 7, 11); assay type: cell-based
Enterobacteriaceae = assay: organism not typed; assay type: cell-based
A. baumannii [3] = assay: MIC by broth microdilution (CLSI), panel of 60 A. baumannii clinical isolates (Example 1); conditions: Acinetobacter baumannii

SMILES: CC1(C)[C@H](C(=O)O)N2C(=O)C[C@H]2S1(=O)=O [Sulbactam, (2S,5R)-3,3-dimethyl-7-oxo-4-thia-1-azabicyclo[3.2.0]heptane-2-carboxylic acid 4,4-dioxide]
- MIC50 (A. baumannii [1]): 16 µg/mL (≈ 68.6 µM)
- MIC90 (A. baumannii [1]): 64 µg/mL (≈ 274 µM)
- MIC Max (A. baumannii [1]): > 64 µg/mL
- MIC Min (A. baumannii [1]): 2 µg/mL (≈ 8.57 µM)
- efficacy (mean delta log CFU) (A. baumannii [2]): failed to show efficacy
- MIC50 (Enterobacter cloacae): 64 µg/mL (≈ 274 µM)
- MIC (Enterobacter cloacae; Enterobacter cloacae ARC4438, AmpC+): 128 µg/mL (≈ 549 µM)
- MIC (Enterobacter cloacae; Enterobacter cloacae ARC4444, AmpC+, MIR-8[I175L]): 64 µg/mL (≈ 274 µM)
- MIC (Enterobacter cloacae; Enterobacter cloacae ARC4458, AmpC+, ACT-2[V312M]): 64 µg/mL (≈ 274 µM)
- MIC (Enterobacter cloacae; Enterobacter cloacae ARC4473, SHV-5+, AmpC+, DHA-1+, TEM-1+): 128 µg/mL (≈ 549 µM)
- MIC (Enterobacter cloacae; Enterobacter cloacae ARC4489, AmpC+): 128 µg/mL (≈ 549 µM)
- MIC (Enterobacter cloacae; Enterobacter cloacae ARC4492, AmpC+): 256 µg/mL (≈ 1100 µM)
- MIC90 (Enterobacter cloacae; N 10): 128 µg/mL (≈ 549 µM)
- MIC range (Enterobacter cloacae; N 10): 64 to 256 µg/mL
- MIC50 (Enterobacteriaceae): 64 µg/mL (≈ 274 µM)
- MIC90 (Enterobacteriaceae): 256 µg/mL (≈ 1100 µM)
- MIC50 (A. baumannii [3]): 16 µg/mL (≈ 68.6 µM)
- MIC90 (A. baumannii [3]): 32 µg/mL (≈ 137 µM)
- MIC (A. baumannii [3]; strain ARC593, OXA-98): 1 µg/mL (≈ 4.29 µM)
- MIC (A. baumannii [3]; strain ARC2058, OXA-95): 2 µg/mL (≈ 8.57 µM)
- MIC (A. baumannii [3]; strain ARC2461, OXA-66, TEM-1): 16 µg/mL (≈ 68.6 µM)
- MIC (A. baumannii [3]; strain ARC2462, TEM-1, OXA-66): 16 µg/mL (≈ 68.6 µM)
- MIC (A. baumannii [3]; strain ARC2598, OXA*, TEM-1, OXA-113): 16 µg/mL (≈ 68.6 µM)
- MIC (A. baumannii [3]; strain ARC2635, OXA-65, OXA-40, TEM-1): 32 µg/mL (≈ 137 µM)
- MIC (A. baumannii [3]; strain ARC2636, OXA-65, OXA-40, TEM-1): 32 µg/mL (≈ 137 µM)
- MIC (A. baumannii [3]; strain ARC2675, SHV-5, OXA-113): 16 µg/mL (≈ 68.6 µM)
- MIC (A. baumannii [3]; strain ARC2681, OXA-40, TEM-1, OXA-132): 16 µg/mL (≈ 68.6 µM)
- MIC (A. baumannii [3]; strain ARC2682, SHV-5, OXA-113): 4 µg/mL (≈ 17.1 µM)
- MIC (A. baumannii [3]; strain ARC2778, OXA-40, TEM-1, OXA-65): 16 µg/mL (≈ 68.6 µM)
- MIC (A. baumannii [3]; strain ARC2779 (A. baumannii/calcoaceticus complex), OXA-2, VIM-2): 16 µg/mL (≈ 68.6 µM)
- MIC (A. baumannii [3]; strain ARC2780 (A. baumannii/calcoaceticus complex), OXA*, OXA-2, IMP-1): 4 µg/mL (≈ 17.1 µM)
- MIC (A. baumannii [3]; strain ARC2782, OXA-66, OXA-23, TEM-1, PER-1): 32 µg/mL (≈ 137 µM)
- MIC (A. baumannii [3]; strain ARC3484, TEM-1, OXA-23, OXA-64): 16 µg/mL (≈ 68.6 µM)
- MIC (A. baumannii [3]; strain ARC3486, OXA-72, OXA-66, TEM-1): 32 µg/mL (≈ 137 µM)
- MIC (A. baumannii [3]; strain ARC3487, OXA-20, OXA-58, OXA-66): 4 µg/mL (≈ 17.1 µM)
- MIC (A. baumannii [3]; strain ARC3488, OXA*, OXA-68): 16 µg/mL (≈ 68.6 µM)
- MIC (A. baumannii [3]; strain ARC3489, OXA*, OXA-68): 2 µg/mL (≈ 8.57 µM)
- MIC (A. baumannii [3]; strain ARC3490, TEM-1+, PSE-2, OXA-69): 32 µg/mL (≈ 137 µM)
- MIC (A. baumannii [3]; strain ARC3491 (A. baumannii/calcoaceticus complex), OXA-215): 0.5 µg/mL (≈ 2.14 µM)
- MIC (A. baumannii [3]; strain ARC3492, OXA-40, OXA-132, TEM-1): 16 µg/mL (≈ 68.6 µM)
- MIC (A. baumannii [3]; strain ARC3493, OXA-40, OXA-66): 64 µg/mL (≈ 274 µM)
- MIC (A. baumannii [3]; strain ARC3494, OXA-65): 4 µg/mL (≈ 17.1 µM)
- MIC (A. baumannii [3]; strain ARC3495, OXA-40, OXA-109): 32 µg/mL (≈ 137 µM)
- MIC (A. baumannii [3]; strain ARC3513, TEM-1, OXA-23, OXA-65): 16 µg/mL (≈ 68.6 µM)
- MIC (A. baumannii [3]; strain ARC3657, OXA-130): 32 µg/mL (≈ 137 µM)
- MIC (A. baumannii [3]; strain ARC3658, OXA-66, PER-1, TEM-1, OXA-23): 32 µg/mL (≈ 137 µM)
- MIC (A. baumannii [3]; strain ARC3659, OXA-23, OXA*): 4 µg/mL (≈ 17.1 µM)
- MIC (A. baumannii [3]; strain ARC3882, OXA-23, NDM-1, OXA-10*): > 64 µg/mL
- MIC (A. baumannii [3]; strain ARC5073, OXA-23, TEM-1, OXA-64, PER-1): 16 µg/mL (≈ 68.6 µM)
- MIC (A. baumannii [3]; strain ARC5074, GES*, TEM-1, OXA-51): 64 µg/mL (≈ 274 µM)
- MIC (A. baumannii [3]; strain ARC5075, SHV-5, OXA-113): 16 µg/mL (≈ 68.6 µM)
- MIC (A. baumannii [3]; strain ARC5076, TEM-1, OXA-23, OXA-66): 32 µg/mL (≈ 137 µM)
- MIC (A. baumannii [3]; strain ARC5077, OXA*, OXA-72): 32 µg/mL (≈ 137 µM)
- MIC (A. baumannii [3]; strain ARC5079, OXA-72, OXA-65): 32 µg/mL (≈ 137 µM)
- MIC (A. baumannii [3]; strain ARC5080, OXA-71, OXA-40): 32 µg/mL (≈ 137 µM)
